From patent publication US20250009737A1, “COMPOUNDS AND METHODS FOR THE TARGETED DEGRADATION OF ANDROGEN RECEPTOR” (Arvinas Operations, Inc., priority 2023, published 2025)
Read-outs that look alike come from different tables or passages of the source.

How the values were obtained:
Format in all cases: in vitro ADME
[1] = test system: CYP2C8 mRNA; experiment: CYP2C8 mRNA induction in cryopreserved human hepatocytes; settings: for CYP2C8 mRNA Fold induction: human hepatocytes
[2] = biological target: T1, CYP2C19 (Homo sapiens, UniProt P33261); experiment: Direct and time-dependent CYP2C19 inhibition in pooled human liver microsomes; settings: pooled HLM, substrate S-Mephenytoin 20 μM
T1 construct: evaluated in pooled human liver microsomes (HLM); from tissue; host or cells: pooled human liver microsomes
T1 sequence (P33261 whole entry): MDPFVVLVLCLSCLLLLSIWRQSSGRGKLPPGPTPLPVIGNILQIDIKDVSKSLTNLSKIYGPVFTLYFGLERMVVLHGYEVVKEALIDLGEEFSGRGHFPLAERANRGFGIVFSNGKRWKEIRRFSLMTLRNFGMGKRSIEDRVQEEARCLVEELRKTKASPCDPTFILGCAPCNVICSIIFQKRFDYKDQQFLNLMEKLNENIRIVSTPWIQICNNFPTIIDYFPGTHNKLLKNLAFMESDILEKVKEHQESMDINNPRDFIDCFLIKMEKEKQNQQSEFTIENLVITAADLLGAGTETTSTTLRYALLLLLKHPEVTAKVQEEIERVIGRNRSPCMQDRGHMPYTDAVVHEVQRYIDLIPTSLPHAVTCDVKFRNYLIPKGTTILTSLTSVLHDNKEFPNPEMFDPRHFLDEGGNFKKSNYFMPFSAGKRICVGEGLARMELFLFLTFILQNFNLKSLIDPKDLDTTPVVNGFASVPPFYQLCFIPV
Experimental: (§1) The induction potential of Compound A on CYP enzymes was assessed in cryopreserved human hepatocytes from three donors. Following treatment for with Compound A at concentrations of 0.03-30 μM for 48 hours, mRNA levels for CYP1A2, 2B6, 2C8, 2C9, 2C19, and 3A4 were determined by semiquantitative real-time polymerase chain reaction (PCR). Test article concentrations during 24-hour incubation were determined. The potential of Compound A to cause direct and time-dependent inhibition (TDI) of the activities of CYP1A2, 2B6, 2C8, 2C9, 2C19, 2D6, and 3A4 was evaluated in pooled human liver microsomes (HLM) at 0.2-15 μM. Probe substrate concentrations around Km were used for direction inhibition and initial TDI assays. For TDI assay, Compound A was pre-incubated with pooled HLM with and without NADPH for 30 minutes prior to incubation with a single concentration of probe substrate.

[3] = biological target: T2, CYP2D6 (Homo sapiens, UniProt P10635); experiment: Direct and time-dependent CYP2D6 inhibition in pooled human liver microsomes; settings: pooled HLM, substrate Bufuralol 5 μM
T2 construct: evaluated in pooled human liver microsomes (HLM); from tissue; host or cells: pooled human liver microsomes
T2 sequence (P10635 whole entry): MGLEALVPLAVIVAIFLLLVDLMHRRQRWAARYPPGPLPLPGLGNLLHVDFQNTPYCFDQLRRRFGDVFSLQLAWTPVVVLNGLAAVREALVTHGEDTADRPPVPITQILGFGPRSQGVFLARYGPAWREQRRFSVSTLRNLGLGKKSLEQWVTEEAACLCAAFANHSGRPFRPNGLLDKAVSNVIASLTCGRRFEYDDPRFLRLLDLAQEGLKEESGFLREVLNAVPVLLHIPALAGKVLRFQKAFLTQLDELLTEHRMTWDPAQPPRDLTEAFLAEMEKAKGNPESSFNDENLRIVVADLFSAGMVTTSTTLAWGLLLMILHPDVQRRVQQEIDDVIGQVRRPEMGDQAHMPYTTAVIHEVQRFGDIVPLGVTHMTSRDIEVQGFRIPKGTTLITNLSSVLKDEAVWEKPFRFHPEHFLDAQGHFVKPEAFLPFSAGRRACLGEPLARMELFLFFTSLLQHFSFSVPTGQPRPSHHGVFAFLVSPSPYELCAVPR
Experimental: as §1

[4] = Metabolite profiling / stability in human hepatocyte suspension
Experimental: (§2) Metabolite profiling was conducted in incubations of Compound A (2 and 10 μM) with HLM (up to 60 min), human hepatocyte suspension (up to 240 min) and human plasma (up to 360 min). In addition, Compound A (2 μM) was incubated with recombinant human CYP enzymes CYP1A2, CYP2A6, CYP2B6, CYP2C8, CYP2C9, CYP2C19, CYP2D6, CYP2E1, CYP3A4 and CYP3A5.
The DDI potential of Compound A as a victim via CYP mediated pathways was examined in HLM, human hepatocyte suspensions, and human recombinant CYP enzymes.

[5] = Metabolite profiling using human plasma, HLM and human hepatocytes; settings: human plasma
Experimental: as §2

[6] = biological target: T3, OAT3 (Homo sapiens, UniProt Q8TCC7); experiment: OAT3 uptake transporter inhibition in MDCKII or HEK293 cells; settings: substrate E3S (1 μM)
T3 construct: expressed in transfected cells; host or cells: MDCKII or HEK293
T3 sequence (Q8TCC7 whole entry): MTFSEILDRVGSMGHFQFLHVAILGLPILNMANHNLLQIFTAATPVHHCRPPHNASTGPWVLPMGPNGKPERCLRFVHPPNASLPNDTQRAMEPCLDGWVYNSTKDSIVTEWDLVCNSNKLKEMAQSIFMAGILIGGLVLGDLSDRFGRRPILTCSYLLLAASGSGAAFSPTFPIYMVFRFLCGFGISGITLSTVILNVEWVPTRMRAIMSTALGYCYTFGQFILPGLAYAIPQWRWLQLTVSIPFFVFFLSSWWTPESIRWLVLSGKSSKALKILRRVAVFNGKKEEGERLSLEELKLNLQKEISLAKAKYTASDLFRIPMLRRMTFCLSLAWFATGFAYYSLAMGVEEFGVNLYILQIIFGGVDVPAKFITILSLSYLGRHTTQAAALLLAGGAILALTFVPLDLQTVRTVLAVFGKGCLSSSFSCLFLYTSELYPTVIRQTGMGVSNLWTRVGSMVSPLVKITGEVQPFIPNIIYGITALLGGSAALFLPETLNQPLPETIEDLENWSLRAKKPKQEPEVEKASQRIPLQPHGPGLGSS
Experimental: (§3) In addition, the inhibition potential against efflux transporters (P-glycoprotein (Pgp) and breast cancer resistance protein (BCRP)) and uptake transporters (MATE1, MATE2-K, OATP1B1, OATP1B3, OAT1, OAT3, and OCT2) was assessed using single transporter over-expressed cell monolayers (MDCK II or HEK293) or inside-out vesicles.
(§4) The potential of Compound A to inhibit Pgp or BCRP was tested for bidirectional transport of the probe substrates in Pgp or BCRP-expressed MDCKII and control monolayers at Compound A concentrations of 0.07-5 μM. Pgp and BCR inhibition were tested in inside-out membrane vesicles prepared from HEK293 overexpressing human Pgp and BCR at concentrations of 0.01-9 μM Compound A in the presence of 4 mM MgATP or MgAMP.

[7] = biological target: T4, OATP1B1 (Homo sapiens, UniProt Q9Y6L6); experiment: OATP1B1 uptake transporter substrate assay; design: expressed in transfected cells; settings: OATP1B1-expressing vs control cell
T4 sequence (Q9Y6L6 1-691): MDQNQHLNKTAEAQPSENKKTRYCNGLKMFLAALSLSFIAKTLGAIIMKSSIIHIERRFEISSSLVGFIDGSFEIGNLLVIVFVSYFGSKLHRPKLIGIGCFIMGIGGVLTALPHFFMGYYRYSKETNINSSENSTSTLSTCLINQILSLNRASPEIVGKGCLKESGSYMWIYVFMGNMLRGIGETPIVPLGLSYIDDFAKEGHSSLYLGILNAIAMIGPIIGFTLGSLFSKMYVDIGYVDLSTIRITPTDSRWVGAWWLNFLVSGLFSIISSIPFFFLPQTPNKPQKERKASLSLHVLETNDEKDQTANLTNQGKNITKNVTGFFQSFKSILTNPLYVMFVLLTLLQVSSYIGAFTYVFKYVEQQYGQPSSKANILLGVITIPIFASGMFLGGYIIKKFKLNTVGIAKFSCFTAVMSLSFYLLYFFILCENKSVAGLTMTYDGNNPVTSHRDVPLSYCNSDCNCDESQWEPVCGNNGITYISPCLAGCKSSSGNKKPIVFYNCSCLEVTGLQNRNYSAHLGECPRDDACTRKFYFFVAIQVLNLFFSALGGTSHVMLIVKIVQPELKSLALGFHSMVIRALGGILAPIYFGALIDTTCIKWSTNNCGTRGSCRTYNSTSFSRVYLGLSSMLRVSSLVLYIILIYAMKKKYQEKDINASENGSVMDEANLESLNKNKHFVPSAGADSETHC
Experimental: The potential of Compound A to act as an efflux transporter Pgp and BCRP as well as uptake transporter OATP1B1 and 1B3 were assessed in Caco-2 and single transporter over-expressed HEK29 cells, respectively.
The potential of Compound A to act as a substrate for Pgp and BCRP was examined in Caco-2 cells at the concentrations of 0.075, 0.75, 3.75 and 7.5 μM containing 1% of BSA. After 120 min incubation, the bidirectional permeability of Compound A was determined by LC-MS/MS. The involvement of Compound A as a substrate of OATP1B1 and OATP1B3 was assessed in the uptake transporter substrate assays at 4 concentrations (0.1, 0.5, 1 and 5 μM). Compound A in cell lysates was determined by LC-MS/MS.

[8] = biological target: Pgp (Homo sapiens, UniProt P08183); experiment: Pgp inhibition in inside-out membrane vesicles from HEK293; design: expressed in transfected cells; host or cells: HEK293 (inside-out membrane vesicles)
Pgp, sequence (P08183 whole entry): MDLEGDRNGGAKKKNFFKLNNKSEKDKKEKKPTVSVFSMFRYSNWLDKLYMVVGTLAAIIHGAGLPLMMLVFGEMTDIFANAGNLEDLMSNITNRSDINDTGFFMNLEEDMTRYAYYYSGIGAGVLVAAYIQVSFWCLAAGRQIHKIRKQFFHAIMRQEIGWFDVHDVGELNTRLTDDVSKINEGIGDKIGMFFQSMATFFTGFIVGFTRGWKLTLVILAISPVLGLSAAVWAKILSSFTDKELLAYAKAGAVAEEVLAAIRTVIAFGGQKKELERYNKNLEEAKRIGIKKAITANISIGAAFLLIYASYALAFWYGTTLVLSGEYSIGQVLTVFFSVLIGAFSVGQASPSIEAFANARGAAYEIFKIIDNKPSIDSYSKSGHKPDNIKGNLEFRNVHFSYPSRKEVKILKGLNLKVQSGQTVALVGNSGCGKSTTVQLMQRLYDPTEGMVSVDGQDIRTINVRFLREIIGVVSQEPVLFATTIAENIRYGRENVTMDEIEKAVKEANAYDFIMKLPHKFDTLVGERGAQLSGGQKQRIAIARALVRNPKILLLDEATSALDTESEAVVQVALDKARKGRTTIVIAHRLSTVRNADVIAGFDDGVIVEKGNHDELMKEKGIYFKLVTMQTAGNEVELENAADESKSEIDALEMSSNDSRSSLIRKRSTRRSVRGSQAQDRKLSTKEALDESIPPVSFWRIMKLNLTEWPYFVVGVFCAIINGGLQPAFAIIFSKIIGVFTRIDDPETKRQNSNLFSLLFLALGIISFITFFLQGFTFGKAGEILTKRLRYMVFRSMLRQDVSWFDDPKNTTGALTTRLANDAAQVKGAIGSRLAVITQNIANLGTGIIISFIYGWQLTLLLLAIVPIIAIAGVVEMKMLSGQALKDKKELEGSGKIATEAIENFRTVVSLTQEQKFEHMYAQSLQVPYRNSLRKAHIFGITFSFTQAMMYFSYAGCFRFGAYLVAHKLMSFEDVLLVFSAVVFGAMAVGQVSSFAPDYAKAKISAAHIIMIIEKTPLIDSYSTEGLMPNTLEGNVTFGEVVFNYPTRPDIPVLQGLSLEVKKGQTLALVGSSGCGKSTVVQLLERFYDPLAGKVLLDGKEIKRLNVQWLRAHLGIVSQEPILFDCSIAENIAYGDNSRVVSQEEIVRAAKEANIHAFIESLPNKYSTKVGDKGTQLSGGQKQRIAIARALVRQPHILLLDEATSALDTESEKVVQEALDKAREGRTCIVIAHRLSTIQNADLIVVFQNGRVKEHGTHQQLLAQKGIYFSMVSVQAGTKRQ
Experimental: as §3, §4

[9] = read-out: IC50, 30 min Pre-incubation
[10] = read-out: IC50, No Pre-incubation

SMILES: COc1cc(O[C@H]2C(C)(C)[C@H](NC(=O)c3ccc(N4CCC(CN5CCN(c6ccc(C(=O)N[C@H]7CCC(=O)NC7=O)c(F)c6)CC5)CC4)cc3)C2(C)C)ccc1C#N [Compound A, 4-(4-((1-(4-(((1R,3R)-3-(4-cyano-3-methoxyphenoxy)-2,2,4,4-tetramethylcyclobutyl)carbamoyl)phenyl)piperidin-4-yl)methyl)piperazin-1-yl)-N—((S)-2,6-dioxopiperidin-3-yl)-2-fluorobenzamide]
- CYP2C8 mRNA Fold induction ([1]; Donor 1, 0.03-30 μM, 48 hours): <2 Fold
- CYP2C8 mRNA Fold induction ([1]; Donor 2, 0.03-30 μM, 48 hours): <2 Fold
- CYP2C8 mRNA induction, % PC ([1]; Donor 3, % of positive control response, at 0.1 μM): 28 % PC
- CYP2C8 mRNA Fold induction ([1]; Donor 3, maximal, at 0.1 μM): 3.1 Fold
- IC50 [2, 9]: > 15 µM
- IC50 [2, 10]: > 15 µM
- IC50 [3, 9]: > 15 µM
- IC50 [3, 10]: > 15 µM
- % Parent at 0 Min, HH at 240 min ([4]; human hepatocyte suspensions, 240 min): 86.9%
- Stability in human hepatocyte suspension ([4]; up to 240 min): relatively stable
- Major metabolic pathway [5]: hydrolysis (M825/1)
- IC50 [6]: > 3.75 µM
- Fold accumulation, OATP1B1 [7]: < 2 fold
- Substrate for OATP1B1 ([7]; 0.1, 0.5, 1 and 5 μM): not a substrate
- inhibition at 1 µM ([8]; human, probe NMQ (1 μM), Vesicles, substrate NMQ (1 μM), read-out: Maximal % Inhibition): 87%
- IC50 ([8]; vesicle assays): 0.23 µM
